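Grown in 96-well plates, cells were treated for 48 hours with each compound at five concentrations. Insufficient inhibition: endpoint recorded as highest concentration tested. Abbreviation: GI50, concentration required for 50% inhibition of growth. TGI denotes the concentration required for complete inhibition of growth.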
Experiments:
Test in all cases: NCI anticancer screen, dose series, 48 h
A498 renal = test system: A498 renal
NCI-H460 lung = test system: NCI-H460 lung
HOP-62 NSCLC = test system: HOP-62 NSCLC
SK-MEL-28 melanoma = test system: SK-MEL-28 melanoma
HL-60(TB) leukemia = test system: HL-60(TB) leukemia
NCI-H522 lung = test system: NCI-H522 lung
UO-31 renal = test system: UO-31 renal
HOP-92 NSCLC = test system: HOP-92 NSCLC
SF-539 CNS = test system: SF-539 CNS
UACC-62 melanoma = test system: UACC-62 melanoma

Row | Compound | TGI (A498 renal) [µM] | TGI (NCI-H460 lung) [µM] | TGI (HOP-62 NSCLC) [µM] | TGI (SK-MEL-28 melanoma) [µM] | TGI (HL-60(TB) leukemia) [µM] | TGI (NCI-H522 lung) [µM] | TGI (UO-31 renal) [µM] | TGI (HOP-92 NSCLC) [µM] | TGI (SF-539 CNS) [µM] | TGI (UACC-62 melanoma) [µM] | GI50 (A498 renal) [µM] | GI50 (NCI-H460 lung) [µM] | GI50 (HOP-62 NSCLC) [µM] | GI50 (SK-MEL-28 melanoma) [µM] | GI50 (HL-60(TB) leukemia) [µM] | GI50 (NCI-H522 lung) [µM] | GI50 (UO-31 renal) [µM] | GI50 (HOP-92 NSCLC) [µM] | GI50 (SF-539 CNS) [µM] | GI50 (UACC-62 melanoma) [µM]
1 | COc1cc2c(cc1OC)[C@@H]([C@H](O)c1ccccc1)NCC2 | > 100 | > 100 | > 100 | > 100 | > 100 | > 100 | > 100 | > 100 | > 100 | > 100 |  |  |  |  |  |  |  |  |  | 
2 | Nc1cc2nc3ccccc3oc-2cc1=O | 11.1 | 4.36 | 6.64 | 3.45 | > 100 | 10.1 | 10.4 | > 100 | 6.75 | 3.27 | 5.44 | 1.77 | 2.94 | 1.79 | 3.19 | 3.45 | 1.77 | > 45 | 2.45 | 1.67
3 | COc1ccc2c(c1)CCN1C3=C(CCC3)C(=O)C[C@@H]21 | > 100 | > 100 | > 100 | > 100 | > 100 | > 100 | > 100 | > 100 | > 100 | > 100 |  |  |  |  |  |  |  |  |  | 

— PubChem BioAssay (NCI)
